Columns and labels:
hTLR4 = molecular target: T1, hTLR4 (Homo sapiens, UniProt O00206+Q9Y6Y9); test: HEK hTLR4 NF-κB driven SEAP reporter assay (hTLR4 activation); format: cell-based; settings: 18 hours
T1 construct: expressed in transfected cells; host or cells: HEK cells expressing hTLR4 and an NF-κB driven SEAP reporter
Experimental: hTLR4 activation. HEK hTLR4-expressing cells were treated with 100 μM concentration of test compound followed by a 5-fold dilution series. HEK hTLR4-expressing cells also contained an NF-κB driven SEAP reporter and were stimulated with the indicated concentration (FIG. 1A-1C) of the test compound for 18 hours followed by assessment of the cellular supernatant for SEAP by a Quantikine SEAP assay (InvivoGen). The SEAP assay was used to look at secretion of the NF-κB driven alkaline-phosphatase reporter gene in response to TLR4 activation by the compounds and results are interpreted both in terms of potency of the compounds to induce SEAP activation (i.e. potency where a lower EC50 indicates higher potency) and efficacy for receptor activation (i.e. maximal SEAP induction).

hMM6 cells = test: Induction of MIP-1β cytokine from hMM6 cells (ELISA); format: cell-based; settings: Homo sapiens, 18 hours
Experimental: Induction of […] cytokine from hMM6 cells. The compounds were next tested in the established MM6 potency assay measuring MIP-1β cytokine production as an output measure of compound potency. Human monocytic cell line, Mono-Mac-6 (hMM6) was obtained from DSMZ (Brunswick, Germany). […] Treatments started at a 100 µM concentration proceeded with a 16-point, 5-fold dilution series. Supernatants were harvested and analyzed for production of MIP-1β via ELISA (R&D systems, catalog #DY271).

mRAW264.7 cells = test: Induction of MIP-1β cytokine from mRAW264.7 cells (ELISA); format: cell-based; settings: Mus musculus, 18 hours, read-out: mRaw MIP-1β EC50
Experimental: Induction of MIP-1β cytokine from mRAW264.7 cells. […] Treatments started at 20 μM concentration with a 5-fold serial dilution until 3.2768E-09 μM. Supernatants were harvested and analyzed for production of MIP-1β via ELISA (R& D Systems-cat #DY451).

[1] = test system: influenza virus antigen A/Victoria/210/2009-H3N2; test: Vaccine adjuvant study, murine influenza virus vaccination model; format: in vivo, BALB/c mice; settings: intramuscular, 0.1, 0.01 or 0.001 μg with 0.2 μg antigen, 14 days after single immunization, 2% glycine
Experimental: Vaccine adjuvant study. Compounds 2, 4, 5 and 7 were evaluated as vaccine adjuvant in a murine influenza virus vaccination model. 7-9 week old BALB/c mice (10 mice per group) were injected intramuscularly in a hind limb with the influenza virus antigen A/Victoria/210/2009-H3N2 (0.2 μg/mouse) with or without 0.1, 0.01 or 0.001 μg of compound 2, 4, 5 or 7 (formulated in 2% glycine). Fourteen days after a single immunization, animals were bled via the submandibular vein and serum was collected to assay for A/Victoria specific antibodies by ELISA assay (FIG. 7).

[2] = Stability of aqueous formulations by reverse-phase-HPLC; format: physicochemical
Experimental: Formulation. The salted compound was accurately weighed into depyrogenated glass vials, and the required volume of aqueous vehicle added to attain the desired concentration. Vials were placed in a sonication bath (sonication bath temperature≤45° C.) to assist solubility and reduce particle size to achieve sterile filtration without significant loss of compound. Once the solution appeared homogeneous, the particle size was periodically monitored by dynamic light scattering until the solution turned clear and the particle size was <200 mn, or the particle size no longer reduced with continued sonication. The formulation was filtered through a 0.22p PVDF membrane filter into a depyrogenated glass vial and the resulting solution quantitated by RP-HPLC.
Aqueous formulations of compounds 1, 2, 3, 4, 5 and 6 were aliquoted into small depyrogenated vials for stability evaluation at temperatures of 2°-8° C., 25° C., and 40° C. This mirrors ICH stability temperature guidelines, but humidity was not controlled. A vial was pulled for each time point/temperature and analyzed by reverse-phase-HPLC (FIGS. 9-14) according to the following schedule starting from 2 weeks to up to 12 months.

primary hPBMCs [3] = test: Induction of RANTES from primary hPBMCs (ELISA); settings: Homo sapiens
primary hPBMCs [4] = test: Induction of MIP-1β from primary hPBMCs (ELISA); settings: Homo sapiens

T1 sequence (O00206 24-839): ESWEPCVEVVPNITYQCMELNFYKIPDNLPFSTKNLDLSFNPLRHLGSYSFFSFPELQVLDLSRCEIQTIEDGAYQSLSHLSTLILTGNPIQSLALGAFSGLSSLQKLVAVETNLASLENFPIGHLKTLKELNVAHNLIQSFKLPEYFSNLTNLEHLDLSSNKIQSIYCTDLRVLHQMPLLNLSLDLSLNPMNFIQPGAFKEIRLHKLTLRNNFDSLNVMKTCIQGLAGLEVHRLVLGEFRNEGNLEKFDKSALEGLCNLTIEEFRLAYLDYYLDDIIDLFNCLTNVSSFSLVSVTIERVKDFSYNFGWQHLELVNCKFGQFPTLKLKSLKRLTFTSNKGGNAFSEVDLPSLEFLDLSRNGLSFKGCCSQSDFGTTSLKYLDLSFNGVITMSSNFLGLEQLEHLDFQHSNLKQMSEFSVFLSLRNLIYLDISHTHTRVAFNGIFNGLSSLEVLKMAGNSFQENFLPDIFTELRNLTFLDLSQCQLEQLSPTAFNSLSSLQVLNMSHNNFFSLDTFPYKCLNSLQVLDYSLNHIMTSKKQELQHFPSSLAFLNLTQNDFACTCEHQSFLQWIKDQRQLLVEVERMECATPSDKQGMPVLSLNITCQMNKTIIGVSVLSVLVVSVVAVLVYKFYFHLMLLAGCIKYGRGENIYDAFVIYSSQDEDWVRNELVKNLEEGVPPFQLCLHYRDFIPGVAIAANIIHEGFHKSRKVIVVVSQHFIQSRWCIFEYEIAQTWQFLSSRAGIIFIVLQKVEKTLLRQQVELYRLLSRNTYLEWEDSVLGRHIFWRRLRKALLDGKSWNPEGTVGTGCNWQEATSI
T1 sequence (Q9Y6Y9 17-160 limits assumed): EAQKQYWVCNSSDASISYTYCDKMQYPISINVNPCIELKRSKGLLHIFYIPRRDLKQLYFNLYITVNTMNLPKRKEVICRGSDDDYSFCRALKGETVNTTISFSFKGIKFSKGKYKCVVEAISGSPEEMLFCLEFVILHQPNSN

In the case of CCCCCCCCCCC[C@H](CC(=O)NCCO[C@@H]1OC(CO)[C@@H](OS(=O)(=O)O)[C@H](NC(=O)C[C@@H](CCCCCCCCCCC)OC(=O)CCCCCCCCC)C1NC(=O)C[C@@H](CCCCCCCCCCC)OC(=O)CCCCCCCCC)OC(=O)CCCCCCCCC (stereo partly drawn) [Compound 2, 2-[(R)-3-decanoyloxytetradecanoylamino]ethyl 2,3-di-[(R)-3-decanoyloxytetradecanoylamino]-2,3-dideoxy-4-O-sulfoxy-β-D-allopyranoside], the EC50 (hTLR4; Table 1a) is reported as 64 nM, the EC50 (hTLR4; Table 1b) is reported as 41 nM and the EC50 (hMM6 cells) is reported as 5.89 nM. The EC50 (mRAW264.7 cells) was 0.0176 nM, the “adjuvant effect on flu-specific IgG2a antibody titers compared to antigen alone” value [1] was “dose dependent adjuvant effect” and the “time with no degradation” value ([2]; 25° C., formulated in 2% glycine (FIG. 10A)) was ≥ 12 months. The degradation ([2]; after 12 months at 40° C., formulated in 2% glycerol (FIG. 10B)) was “less than 10%”, the EC50 (primary hPBMCs [3]; read-out: hPBMCs EC50 RANTES, Table 3a, Average of Donors 10, 5, 2) was 0.243 nM and the EC50 (primary hPBMCs [3]; read-out: hPBMCs EC50 RANTES, Table 3a, Donor 2) was 0.38 nM. For the same compound, the EC50 (primary hPBMCs [3]; read-out: hPBMCs EC50 RANTES, Table 3a, Donor 5) was 0.285 nM, the EC50 (primary hPBMCs [3]; read-out: hPBMCs EC50 RANTES, Table 3a, Donor 10) was 0.0642 nM and the EC50 (primary hPBMCs [3]; read-out: hPBMCs EC50 RANTES, Table 4b, Average of Donors 22, 5) was 0.423 nM. For the same compound, the EC50 (primary hPBMCs [3]; read-out: hPBMCs EC50 RANTES, Table 4b, Donor 5) was 0.238 nM, the EC50 (primary hPBMCs [3]; read-out: hPBMCs EC50 RANTES, Table 4b, Donor 22) was 0.609 nM and the EC50 (primary hPBMCs [4]; read-out: hPBMCs EC50 MIP-1β, Table 3a, Average of Donors 10, 5, 2) was 0.0963 nM. For the same compound, the EC50 (primary hPBMCs [4]; read-out: hPBMCs EC50 MIP-1β, Table 3a, Donor 2) was 0.0755 nM, the EC50 (primary hPBMCs [4]; read-out: hPBMCs EC50 MIP-1β, Table 3a, Donor 5) was 0.166 nM and the EC50 (primary hPBMCs [4]; read-out: hPBMCs EC50 MIP-1β, Table 3a, Donor 10) was 0.0475 nM. It also gave an EC50 (primary hPBMCs [4]; read-out: hPBMCs EC50 MIP-1β, Table 4b, Average of Donors 22, 5) of 0.453 nM, an EC50 (primary hPBMCs [4]; read-out: hPBMCs EC50 MIP-1β, Table 4b, Donor 5) of 0.119 nM and an EC50 (primary hPBMCs [4]; read-out: hPBMCs EC50 MIP-1β, Table 4b, Donor 22) of 0.786 nM.

— US20250170156A1, “TOLL-LIKE RECEPTOR LIGANDS” (INIMMUNE CORPORATION, priority 2018, published 2025)
